From patent US20210029998A1, “ACIDIC ANTIMICROBIAL COMPOSITION” (The Procter & Gamble Company, priority 2019, published 2021)
Structures can show the parent of a compound that is named as a salt.

System: Staphylococcus aureus (S. aureus—ATCC #6538)
Experiment: Minimum Biocidal Concentration (MBC) in suspension
Assay type: cell-based
Procedure: B) Antibacterial Efficacy (Minimum Biocidal Concentration in Suspension) The antimicrobial efficacy of the antimicrobial agent in the composition is determined by measuring its Minimum Biocidal Concentration (MBC). The MBC is defined as the lowest absolute concentration of the particular antimicrobial active which provides complete kill (zero bacterial growth). The MBC of the compositions herein is determined against the bacterium, Staphylococcus aureus (S. aureus—ATCC #6538), a gram positive bacterium, These microorganisms are representative of natural contaminants in many consumer and industrial applications. The bacteria inoculum is prepared by transferring several colonies from a Tryptone Soy Agar (TSA) plate to a saline solution (0.85% NaCl) comprising 5% of horse serum as additional soil load when indicated, the bacteria concentration in this saline solution is determined by measuring the % Transmittance at 425 nm and adjusted by either adding more bacteria or more saline solution until the % Transmittance at 425 nm is between 23-25% which corresponds to a bacteria concentration of 10^8 CFU/ml. The antimicrobial agent was added to the composition at a level of 1000 ppm, 500 ppm, or 200 ppm, or 100 ppm or 50 ppm. 200 μL of the antimicrobial hard surface cleaning composition was dosed into one well of row A of a 96 well microtiter plate. Each subsequent well (rows B to G) were dosed with 100 μL of the same hard surface cleaning composition, without the addition of the antimicrobial agent. 100 μL of the antimicrobial hard surface cleaning composition was transferred from row A to row B and mixed. 100 μL of the composition was then transferred from row B to row C and mixed, and the process repeated to row G. As such, the concentration of the antimicrobial agent underwent two-fold dilution in adjacent wells, while the concentration of the other actives in the hard surface cleaning composition remained constant across all the wells in the same column. 10 μL of the 10^8 CFU/ml bacteria suspension in saline was added to wells A to F of the microtiter plate with row G kept as a nil bacteria control. The final volume in each well was 110 μL, except for row G which comprised 100 μL of the hard surface cleaning composition and no bacteria suspension. Bacterial inoculation to each column was staggered by 30 seconds to allow for equal incubation times in all wells so that the contact time between the bacteria and the antimicrobial active for all samples was 6 mins. After this contact time, 10 μL of each test solution was transferred to 90 μL of neutraliser solution (Modified Letheen Broth+1.5% Polysorbate 80, supplied by BioMérieux) to stop the antimicrobial action of the antimicrobial active matching the stagger of the inoculation. 2 μL of this solution was plated onto a TSA plate matching the stagger of the inoculation so that all samples are exposed to the neutralizer for the same period of time. The plate is incubated at 32.5° C. for 48 h for S. aureus. MBC concentration is taken as the lowest concentration of the antimicrobial active at which no visible colony growth is observed on the TSA plate. The antibacterial efficacy of the bispyridinium alkane octenidine hydrochloride was compared to that of the quaternary ammonium compound n-alkyl dimethyl benzyl ammonium chloride/n-alkyl dimethyl ethylbenzyl ammonium chloride (BTC®2125-Stepan) in acidic compositions comprising 1% of the indicated surfactant. Compositions were acidified using either an inorganic acid (hydrochloric acid) or an organic acid (citric acid). The minimal biocidal concentration (MBC) in suspension of each antibacterial active against a gram positive bacterium (Staphylococcus aureus) was measured in the presence of 5% horse serum to mimic stressed soiled conditions. Contact time was 6 minutes except for the composition with 1% of dodecyldimethyl amine oxide that was 30 seconds.

## CCCCCCCCN=c1ccn(CCCCCCCCCCn2ccc(=NCCCCCCCC)cc2)cc1 [Octenidine, octenidine dihydrochloride]
ATCC6538, 0.1 h, pH 3.83, acidic composition with 1% w/v D-glucopyranose oligomeric decyl octyl glucoside (Triton CG 50), citric acid, pH 3.83, 5% horse serum, contact time 6 minutes
  MBC: 62.5 µg/mL
ATCC6538, 0.1 h, pH 3.83, acidic composition with 1% w/v cocoamidopropyl hydroxysultaine (Mackam SB 50), HCl, pH 3.83, 5% horse serum, contact time 6 minutes
  MBC: 62.5 µg/mL
ATCC6538, 0.1 h, pH 3.86, acidic composition with 1% w/v C9-C11 alcohol EO8 (Neodol 91-8), HCl, pH 3.86, 5% horse serum, contact time 6 minutes
  MBC: 62.5 µg/mL
ATCC6538, 0.1 h, pH 3.86, acidic composition with 1% w/v C10 EO5 alcohol ethoxylate (Lutensol ON 50), HCl, pH 3.86, 5% horse serum, contact time 6 minutes
  MBC: < 31 µg/mL
ATCC6538, 0.1 h, pH 3.87, acidic composition with 1% w/v 2-ethylhexyl PO5EO6 alkylalkoxylate (Ecosurf EH6), HCl, pH 3.87, 5% horse serum, contact time 6 minutes
  MBC: < 31 µg/mL
ATCC6538, pH 3.88, acidic composition with 1% w/v dodecyl dimethyl amine oxide (Empigem OB), citric acid, pH 3.88, 5% horse serum, contact time 30 seconds
  MBC: 62.5 µg/mL
